# Results published in patent US7718636B2, “Use of 2-methylene-19-nor-20(S)-1alpha,25dihydroxy vitamin d3 to inhibit mammary tumor” (Wisconsin Alumni Research Foundation, priority 2003, dated 2010).
# What was measured:
# [1] = test system: aged, ovariectomized female rats; experiment: Survival of aged ovariectomized female rats given 2-MD orally each day for 7.5 months; type: in vivo, rat
# Procedure: Thus, the experiment was carried out as follows:
# (§1) 48 retired female breeder rats of 12 months of age were obtained from the Harlan Sprague-Dawley Company. Upon arrival, the animals were ovariectomized or sham-operated. These animals were housed in individual hanging wire cages and provided water ad libitum. Food consumption was restricted to 19-21 g/day. Animals were maintained on a purified diet described by Suda et al (J. Nutr. 1970) which contained 0.47% calcium and 0.3% phosphorus. In addition, these animals received supplements of vitamin A, E, D, and K as described in the Suda paper. One half of the animals received each day 0.1 ml of Wesson Oil while the remaining one-half of the animals received orally the 0.1 ml of Wesson Oil containing 5 or 7 ng/2-MD/kg body weight. The animals were monitored weekly for body weight, general health and survival. These animals were followed for 7.5 months.
# [2] = Body weight in aged female rats; type: in vivo; details: at 7-1/2 months, 5 or 7 ng 2-MD/kg orally each day
# Excerpt: as §1
# calcium from bone = details: compared to 1α,25-dihydroxyvitamin D3; cited from earlier work
smiles,measurement,setting,value
"C=C1[C@H](O)CC(=C/C=C2\CCC[C@]3(C)[C@@H]([C@@H](C)CCCC(C)(C)O)CC[C@@H]23)C[C@H]1O [2-MD, 2-methylene-19-nor-20(S)-1α,25-dihydroxyvitamin D3]",survival and general health over the entire period,"[1]; 5 or 7 ng 2-MD/kg body weight orally each day, 7.5 months",survived the entire period and were in good health
same,survival rate,"[1]; aged, ovariectomized female rats, oral 2-MD each day, 7.5 months",100%
same,Survival Ratio #premature deaths/total # animals,"[1]; ovariectomized or sham-operated retired female breeder rats, 12 months of age, 5 or 7 ng 2-MD/kg body weight orally each day in Wesson Oil, followed for 7.5 months",0/24
same,Body Weight Final,[2],382 ± 10 g
same,ability to mobilize calcium from bone,calcium from bone,very high activity
